The source of these data is US20090093471A1, “Methods of Treating Nervous Disorders” (priority 2005, published 2009).

The subject of assay [1] is Notch-1 (NotchΔE) cleavage. As to the kind of experiment: NotchΔE transfection and Notch-1 cleavage assay in Hela cells. As to conditions: Hela cells overexpressing NotchΔE, up to 16 hours; DAPT 2 μM.
For assay [2], the system named is γ-secretase. In words: γ-Secretase assay, compound added to solubilized γ-secretase preparations. The format is biochemical. To be noted: control inhibitors; DAPT at 2 μM. The protocol: We implemented a an assay allowing de novo Aβ generation in vitro, using cell membranes as the source of γ-secretase. Preparation of solubilized γ-secretase fractions was performed essentially as described previously (Li, Y. M., Lai, M. T., Xu, M., Huang, Q., DiMuzio-Mower, J., Sardana, M. K., Shi, X. P., Yin, K. C., Shafer, J. A., and Gardell, S. J. (2000) Proc. Natl. Acad. Sci. U.S.A. 97, 6138-6143) with the above modifications. All incubations were performed in the presence of Complete Protease Inhibitor Cocktail. Confluent plates swAPP-HEK293 cells were lysed in 1 ml of ice-cold CelLytic-M (Sigma) and incubated 15 minutes at 4° C. on a shaker. Cell debris and nuclei were removed by centrifugation at 1000×g for 15 min at 4° C. For membrane isolation, the supernatant solutions were centrifuged at 20,000×g for 1 hour at 4° C. After centrifugation, the ensuing pellets were resuspended in 100 μl activity buffer (150 mM Na Citrate, pH 6.4)/cells plate and were defined as solubilized γ-secretase, as previously shown by Pinnix et al. (2001). Solubilized γ-secretase activity was induced at 37° C. for 2 h with or without the indicated treatments and Aβ 40 generated de novo was quantified by ELISA. Control experiments used the internally quenched fluorogenic γ-secretase substrate NMA-[…](DNP)-DRDRDR-NH2 (λex=355 nm; λem=440 nm) from Calbiochem, which contains the C-terminal β-APP amino acid sequence that is cleaved by γ-secretase and the γ-secretase inhibitor N—[N-(3,5-Difluorophenacetyl-L-alanyl)]-S-phenylglycine t-Butyl Ester (DAPT, Calbiochem).
To test this hypothesis, we used an established γ-secretase assay allowing de novo Aβ generation in vitro, using cell membranes as the source of γ-secretase. Solubilized γ-secretase fractions are activated in a γ-secretase buffer (see experimental procedures) and activity is monitored following either the cleavage of an internally quenched fluorogenic γ-secretase substrate, or endogenous C99 itself. The well characterized cell permeable γ-secretase inhibitor DAPT (Lanzn, T. A., Himesn, C. S., Pallanten, G., Adamsn, L., Yamazakin, S., Amoren, B., and Merchantn, K. M. (2003) J. Pharmacol. Exp. Ther. 305, 864-871) is included as control. C99 cleavage by γ-secretase was measured by de novo Aβ 40 generation. De novo Aβ 40 production increased with time and was optimal at 37° C. (FIG. 4 B). […] When temperature decreased, Aβ 40 generation decreased in parallel and was abolished at 4° C., in accordance with an enzymatic processing. […] (data not shown).

The target in the next assay is T1, BACE1 (Homo sapiens, UniProt P56817).
T1 construct: expressed in transfected cells; host or cells: HEK293
As to the kind of experiment: Cellular BACE activity, HEK293 cells stably expressing BACE1. As to conditions: cells incubated 24 hours with compound 38 at 2, 10 or 20 μM. Format: cell-based. The source says:
(§1) The human BACE1 cDNA was generated by RT-PCR from human brain mRNA samples (Biocat, Germany) and cloned into pcDNA3 expression vector. Subsequently, a HEK293 cell line stably expressing BACE1 was generated and used as a source of BACE1. An in vitro assay was developed based on previous studies (Ermolieff, J., Loy, J. A., Koelsch, G., and Tang, J. (2000) Biochemistry 39, 12450-12456) using a quenched fluorogenic substrate containing the Swedish mutation MCA-[…](DNP)-CONH2 (Substrate V, Calbiochem). Proteins were extracted in 20 mM MES/1% Triton X100 plus protease inhibitor cocktail by incubation on ice for 30 minutes. The assay was carried out in black 96 well plates (ATGC) in a volume of 200 μl reaction buffer (25 mM MES/25 mM Sodium Acetate/25 mM Tris, pH 4.4), containing 25 μl of the preparation plus 15 μM peptide Substrate V. Excitation was performed at 320 nm and the reaction kinetics were monitored by measuring the fluorescence emission at 420 nm on a Fluoroscan Ascent FL plate reader (Thermo LabSystems). Controls included purified recombinant human BACE501 protein (R&D Systems) diluted at 1 μg/well in 200 μl of 0.1 M Na Acetate buffer (pH 4.4), the BACE substrate analog inhibitor III (H-Glu-Val-Asn-Statine-Val-Ala-Glu-Phe-NH2, Calbiochem), or substrate alone, and background fluorescence was subtracted to recorded BACE activitiy. […]

Assay [3] deals with T2, recombinant human BACE protein (Homo sapiens, UniProt P56817).
T2 construct: purchased R&D Systems
As to the kind of experiment: BACE fluorogenic assay with recombinant protein. The format is biochemical. As to conditions: recombinant human BACE 1 μg/well, pH4.4; compound 38 at 2, 10 or 20 μM and higher.
Description: as §1

Assay [4] concerns APP processing (α-secretase pathway, CTFs) in swAPP-HEK293 cells. As to the kind of experiment: Western blot of APP, sAPPα, C83 and C99 in swAPP-HEK293 cells. To be noted: swAPP-HEK293, 16 hours.
Description: swAPP-HEK293 cells were scraped and lysed in CelLytic-M (Sigma). Protein concentrations were determined by the Bradford procedure. Equal quantity of proteins were separated on a 10% SDS-PAGE gel and transferred to Hybond-C (Amersham Biosciences) membranes. After transfer, membranes were blocked with 5% nonfat milk and incubated overnight with the primary antibody anti-APP antibody at 1/1000 (Serotec), allowing the detection of both APP and C83-C99 CTFs under specific separation and exposure conditions. For sAPPα detection, cells were allowed to secrete for 7 h. Media were collected, centrifuged and then equal amount of secretate were loaded on 10% SDS-PAGE and Western blotted with 6E10 monoclonal antibody (1/1000).
For the next assay, the target named is RhoA (Homo sapiens, UniProt P61586). As to conditions: Gao et al. 2004, Picard et al., submitted, cited from earlier work.
Assay [5] concerns Aβ 40 and Aβ 42 production in swAPP-HEK293 cells. In words: Secreted Aβ 40 and Aβ 42 ELISA, swAPP-HEK293 cells. Format: cell-based, human. The source says: Human APP harbouring the “Swedish” mutation (swAPP) is more prone to processing than wtAPP.
Assay [6] concerns intracellular Aβ 40 and Aβ 42 in swAPP-HEK293 cells. As to the kind of experiment: Intracellular (cell-associated) Aβ 40 and Aβ 42 ELISA, swAPP-HEK293 cells. The format is cell-based, human. As to conditions: qualitative. On the technique in general: In an ELISA, binding on a coated surface is turned into a signal by an enzyme label.
The next assay concerns the target Rac1 (Homo sapiens, UniProt P63000). As to the kind of experiment: Endogenous Rac GTPase activation assay (GST-Pak-PBD pull-down of GTP-Rac1) in U87-MG cells. To be noted: qualitative.
In assay [7] the test system is Aβ 40 production in SH-SY5Y cells. To be noted: qualitative.
Description: Cells were treated 48 hours after plating in 10 cm plates with various concentrations of the indicated molecules, or DMSO as the vehicle for 16 hours. To do so, medium was replaced with 5 ml of new medium in which treatments were performed. Total DMSO dilution was 1/1000 in all cases. Cells were allowed to secrete in 5 ml medium for 7 hours in the presence of 1 μM phosphoramidon.
Stably transfected swAPP-HEK293 cells were incubated for 7 hours in the presence of phosphoramidon (1 μM) (Sigma). Media and cell lysates were collected as above, centrifuged, normalized to total protein and assayed for Aβ 40 and Aβ 42 by sandwich ELISA according to the manufacturer's instructions (Biosource International). For Aβ 42 detection, samples were concentrated on YM3 Microcon columns (Millipore). […] Right cortices were homogenized for 3 h at room temperature in 5M Guanidine-Hcl, 50 mM Tris-Hcl, pH8 with a protease inhibitor mixture (Roche Diagnostics). Tissue homogenates were diluted 1:1 (v/v) in BSAT-DPBS buffer (Dulbecco's phosphate buffered saline with 5% BSA and 0.03% Tween-20), pH 7.4, and were centrifuged at 20,000 g for 20 min at 4° C. Supernatants were diluted 1:1 (v/v) in ELISA kit sample buffer, normalized to total protein and assayed for Aβ 40 and Aβ 42 by sandwich ELISA according to the manufacturer's instructions. For Aβ 42 detection, samples were concentrated on YM3 Microcon columns (Millipore).
Assay [8] concerns γ-secretase. As to the kind of experiment: γ-Secretase assay, de novo Aβ generation from membranes of compound-treated cells. To be noted: cells incubated with compound for 16 hours. Format: cell-based. The protocol:
We implemented a an assay allowing de novo Aβ generation in vitro, using cell membranes as the source of γ-secretase. Preparation of solubilized γ-secretase fractions was performed essentially as described previously (Li, Y. M., Lai, M. T., Xu, M., Huang, Q., DiMuzio-Mower, J., Sardana, M. K., Shi, X. P., Yin, K. C., Shafer, J. A., and Gardell, S. J. (2000) Proc. Natl. Acad. Sci. U.S.A. 97, 6138-6143) with the above modifications. All incubations were performed in the presence of Complete Protease Inhibitor Cocktail. Confluent plates swAPP-HEK293 cells were lysed in 1 ml of ice-cold CelLytic-M (Sigma) and incubated 15 minutes at 4° C. on a shaker. Cell debris and nuclei were removed by centrifugation at 1000×g for 15 min at 4° C. […] Solubilized γ-secretase activity was induced at 37° C. for 2 h with or without the indicated treatments and Aβ 40 generated de novo was quantified by ELISA. […]
To test this hypothesis, we used an established γ-secretase assay allowing de novo Aβ generation in vitro, using cell membranes as the source of γ-secretase. Solubilized γ-secretase fractions are activated in a γ-secretase buffer (see experimental procedures) and activity is monitored following either the cleavage of an internally quenched fluorogenic γ-secretase substrate, or endogenous C99 itself. […] C99 cleavage by γ-secretase was measured by de novo Aβ 40 generation. […]

Assay [9] relates to constitutively active mutant Rac1-Val12 (RACV12). As to the kind of experiment: Transient expression luciferase reporter assays in NIH3T3 cells cotransfected with RacV12. To be noted: c-Jun, NF-KB and cyclin D1 reporter constructs; qualitative. On the technique in general: Reporter assays use an easily measured gene product as a stand-in for the process of interest.
Description: Briefly, 250,000 NIH3T3 cells/well were seeded in 6-well plates and were co-transfected 24 h later with plasmids prK5-RacV12 and reporter constructs using LipofectAMINE Plus (Invitrogen). Compound of interest was added after the incubation with LipofectAmine. 24 h after transfection, cells were starved for an additional 24 h with Dulbecco's modified Eagle medium supplemented with 0.5% FBS together with the appropriate doses of test compounds or the solvent only. Analyses of the cell lysates of the transiently transfected NIH3T3 cells were performed using the Luciferase Assay System (Promega) and Fluoroscan Ascent FL plate reader (Thermo LabSystems). […] However, consistent and reproducible data were obtained in different assays performed using several plasmid preparations, and we monitored protein concentration for yield in the cell extracts as well as expression of the tagged, exogenous protein by Western blotting.

Like-named read-outs stand apart in the source and are kept apart here.

Sequence of RhoA (P61586 whole entry, species assumed): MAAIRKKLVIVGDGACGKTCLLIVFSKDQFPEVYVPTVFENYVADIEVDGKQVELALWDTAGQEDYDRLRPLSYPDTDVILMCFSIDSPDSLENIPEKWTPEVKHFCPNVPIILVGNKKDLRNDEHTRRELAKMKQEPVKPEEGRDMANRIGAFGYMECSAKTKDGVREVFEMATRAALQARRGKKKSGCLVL
T2 sequence (P56817 46-501): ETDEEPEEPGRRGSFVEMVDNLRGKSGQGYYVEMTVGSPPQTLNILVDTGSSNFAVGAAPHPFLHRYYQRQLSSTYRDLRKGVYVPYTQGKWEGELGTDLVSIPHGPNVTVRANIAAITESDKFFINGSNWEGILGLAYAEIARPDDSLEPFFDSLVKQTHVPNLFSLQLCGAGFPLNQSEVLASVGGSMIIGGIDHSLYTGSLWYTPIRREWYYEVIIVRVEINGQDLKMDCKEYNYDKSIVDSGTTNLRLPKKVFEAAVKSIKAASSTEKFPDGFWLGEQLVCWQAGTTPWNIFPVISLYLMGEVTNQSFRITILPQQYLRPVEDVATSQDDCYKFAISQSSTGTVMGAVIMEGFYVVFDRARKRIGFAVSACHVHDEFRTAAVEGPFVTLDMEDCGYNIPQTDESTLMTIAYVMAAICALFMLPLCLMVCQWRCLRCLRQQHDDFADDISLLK
T1 sequence (P56817 46-501): as above

Regarding `C[C@H](NC(=O)Cc1cc(F)cc(F)c1)C(=O)N[C@H](C(=O)OC(C)(C)C)c1ccccc1` [DAPT, N—[N-(3,5-Difluorophenacetyl-L-alanyl)]-S-phenylglycine t-Butyl Ester, reference compound], the “Notch cleavage (NICD by Western blot)” value in assay [1] is on record as “potently inhibited”. Further, in the assay on γ-secretase [2], the “Aβ production (de novo Aβ 40 generation)” value is “completely inhibited”.

With “H-Glu-Val-Asn-Statine-Val-Ala-Glu-Phe-NH2 [BACE Inhibitor III, reference compound]”, the “cellular BACE activity (fluorescence)” value on BACE1 is reported as “inhibited”. The “BACE activity (cleavage of fluorogenic Substrate V)” value in assay [3] is given as “abolished the cleavage”.

In general, IC50 refers to the point on the concentration scale where inhibition reaches its midpoint. The inhibition is the percentage by which the read-out fell short of the control. With `CCN(CC)CCCC(C)Nc1nc(C)cc(Nc2ccc3nc(C)cc(N)c3c2)n1` (racemic) [compound 49], the “APP expression and maturation, α-secretase pathway (APP, C83, sAPPα)” value in [4] is on record as “no alterations”. The “activity on / interaction with RhoA” value is “does not interact with cdc42 and RhoA” on RhoA; “not to affect the activity of Cdc42 or RhoA” at RhoA (listed as NSC23766). The “Notch cleavage (NICD by Western blot)” value in assay [1] is listed as “no alterations”. The IC50 in [5] (Homo sapiens, read-out: IC50, secreted Aβ 40) was found to be 48.9 µM. Moreover, the inhibition at 50 µM in assay [5] (Homo sapiens, read-out: inhibition of released Aβ 42) turned out to be 58%. The “secreted Aβ 40 levels” value in assay [5] (swAPP-HEK293, various concentrations, qualitative) was “dose-dependently reduced secreted Aβ 40 levels”. Also, the “extracellular levels of Aβ 42” value in assay [5] (swAPP-HEK293, qualitative) was “dose-dependently decreased”. For the same compound, the “intracellular Aβ 40” value in assay [6] (swAPP-HEK293) is given as “no intracellular accumulation of Aβ 40”. Besides, the “intracellular levels of Aβ 42” value in [6] (swAPP-HEK293) is “dose-dependently decreased”.

For the compound `CN1CCN(Cc2cc(=O)c(OCCCCCOc3ncnc4ccccc34)co2)CC1` (racemic) [compound 53, 5-(5-(Quinazolin-4-yloxy)pentyloxy)-2-((4-methylpiperazin-1-yl)methyl)-4H-pyran-4-one], the Rac1 activation result on Rac1 is given as “totally unable to inhibit Rac1 activation”. Moreover, the “reducing Aβ levels” value in assay [7] is “strictly inactive”. The “secreted Aβ 40 and Aβ 42” value in assay [5] (swAPP-HEK293, 18 h, 20, 10 or 2 μM, qualitative) was “strictly inactive”. For the same compound, the “Aβ 40 and Aβ 42 intracellular levels” value in [6] (swAPP-HEK293 cell lysates, normalized to cellular protein) is “strictly inactive”. Also, in the assay with γ-secretase [8], the “de novo Aβ production from C99 (γ-secretase activity)” value is recorded as “did not affect γ-secretase activity”. In assay [9], the “luciferase activity from all 3 reporter constructs” value was “did not change luciferase activity”.
